Experimental data as given in patent US20260315609A1, “MIXED VASOPRESSIN RECEPTOR AGONIST-ANTAGONIST FOR TREATING END-STAGE LIVER DISEASE AND COMPLICATIONS ASSOCIATED THEREOF” (FERRING B.V., priority 2022, published 2026).
Several values for one entry are separate records, joined by “and”; a condition that tells them apart may be missing. Equal entries are not always repeated. Starred links: 1 amine or outer side, 2 acyl side, 3 side chain; linkers in the order of their positions; H or OH if unused. Positions of bridges follow the written chain, without caps; N, C: chain ends. Non-standard residues stand in square brackets, D forms with d. Residues, ends and D or L forms follow the SMILES beside them. Chains are numbered I, II in the order given. *: point of attachment. isoGln = NC(=O)[C@H](CCC(=O)[*:2])N[*:1]; εLys = N[C@@H](CCCCN[*:1])C(=O)[*:2]; Dab = NCC[C@H](N)C(=O)O; PhAc = O=C(Cc1ccccc1)*

Tests used:
rV1b receptor = molecular target: T1, rV1b receptor (Rattus norvegicus, UniProt P48974); assay: Luciferase reporter gene assay, rat V1b; details: read-out: % MPE
T1 sequence (P48974 1-425): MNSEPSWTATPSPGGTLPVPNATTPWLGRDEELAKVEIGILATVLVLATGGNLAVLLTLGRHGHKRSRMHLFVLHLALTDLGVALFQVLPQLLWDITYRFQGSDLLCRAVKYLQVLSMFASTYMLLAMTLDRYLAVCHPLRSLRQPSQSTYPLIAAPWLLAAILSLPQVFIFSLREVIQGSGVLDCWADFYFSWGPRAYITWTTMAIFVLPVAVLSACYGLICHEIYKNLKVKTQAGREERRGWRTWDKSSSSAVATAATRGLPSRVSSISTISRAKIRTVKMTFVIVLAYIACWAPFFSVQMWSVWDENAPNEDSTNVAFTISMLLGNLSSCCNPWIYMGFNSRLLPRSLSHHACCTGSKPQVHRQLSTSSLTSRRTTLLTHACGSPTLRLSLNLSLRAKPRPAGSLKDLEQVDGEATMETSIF
Procedure: Cell Lines. Studies were conducted with cell lines expressing rat (r) or human (h) Via, V1b, V2, or OT receptors. For the experiments with human receptors, human embryonic kidney (HEK)-flp-in cells stably expressing the lacZ-Zeocin™ fusion gene were used for expression of hV1a and hV1b. These cells were designed for use with the Flp-In™ expression vector containing the gene of interest (here hV1a or hV1b) and the Flp recombinase expression plasmid, pOG44. For hV2 and hOTR, HEK-293 cells transiently expressing hV2 were used.
Cell Maintenance. […]
Functional Cell-Based Assays. To detect activity generated by binding of the test compounds to endogenous rV1a receptors or the stably expressed hV1a receptors, Fluorometric Imaging Plate Reader (FL1PR) calcium assays were performed. Briefly, real-time fluorescence of an intracellular calcium-sensitive dye was measured immediately upon addition of the test compound at various concentrations. […] Expression of the luciferase gene was determined after 5-h incubation with various concentrations of test compound. […] For V1a receptor response, area under the curve of the real-time calcium traces, expressed as relative fluorescence units, was determined. […]

[1] = M1 formation after IV and SC (bolus) injection in healthy rats; details: in vivo, s.c. (bolus) injection, rat
Description: A similar study in healthy rats was used to evaluate the differences between metabolite formation of Compound 1 after IV bolus and SC (bolus) injection.

[2] = Safety and tolerability in healthy rats; format: in vivo, rat
Procedure: Rat models were used as a model to assess PK/PD of Compound 1.
Four adult male Sprague Dawley rats were catheterized via the carotid artery (for blood collection). […] Blood samples were collected at nominal times of 5, 10, 20, 40, 60, 90, 120, 180, 240, and 300 min after administration using an automated blood sampling system as described above. Plasma was prepared from whole blood using K2EDTA as anticoagulant. Subsequent bioanalysis of samples included compound extraction and plasma concentration determination using standard LC/MS methods.
The study was performed using six adult male Sprague Dawley rats, aged ~11 weeks. The pressure catheter was a polyurethane tubing that extended out of the device body and was inserted into the lower abdominal aorta. A postoperative injection of analgesia (flunixin, 5 mg per animal; Finadyne®, Schering-Plough) was given once immediately after implantation, and once at an interval of 24 h. The surgical wounds were disinfected with povidone iodine (Vétédine®, Vetoquinol SA) for 4 consecutive days. After surgery, the animals recovered for ~2 weeks before first study administration (day 0).
On the days of administration, animals were examined before and immediately after administration, and at least once after dosing (after the ≥4-h analysis time point) to detect any clinical signs or reaction to administration. A full clinical examination was performed weekly.

[3] = Metabolite pattern (M1, M5) in human plasma after i.v. infusion and s.c. injection; format: in vivo
Procedure: Urinalysis was performed locally by means of a dip-stick test. […] In case any result of the dipstick was abnormal and clinically significant, a new urine test was to be performed. If the abnormal result was confirmed, further examination could be initiated at the discretion of the Investigator. Clinically significant abnormal findings were reported as AEs. The metabolite pattern of Compound 1 in plasma and urine were measured.
In some instances, an objective of the study was to investigate metabolite pattern of Compound 1 in plasma and urine.
Due to analytical method interference, it was not possible to analyses for metabolites in human urine. After i.v. administration, the metabolite M1 was present only at low concentrations in one subject in the male and 4 subjects in the female dose group 0.6 mg, while it was present in all females and 5 of the 6 males in the 0.9 mg dose group, albeit with few exceptions below LOQ (FIG. 44, panel A).

[4] = test system: bile duct ligation (BDL) and ascites rat model; assay: Bile duct ligation (BDL) and ascites rats, SC b.i.d. 5 days; format: in vivo; details: for Animal Body Weight: 99.5 μg FB/kg SC b.i.d.
Procedure: Animals: Male Sprague Dawley rats weighing 300-400 grams with bile duct ligations (BDL) performed at 7 weeks of age by the vendor (Harlan, IN). BDL rats were administered 50 μg of vitamin K1 at the time of BDL surgery, prior to shipment, and then once weekly to reduce potential mortality from hemorrhagic complications.
The working solution was stored at 4° C. over the course of the study and warmed to room temperature for 30 minutes before administration.
Animals were weighed daily. […] Each metabolic cage was set up for continuous measurement of spontaneous urine output via force transducers placed […] the urine collection vials to monitor and record the time course of urine output. Data from the calibrated force transducers every time the rats void. […] Only 16 metabolic cages could be used, urine, water, and food intake data were not collected for one animal in the vehicle group. Animals were returned to their home cages for the remainder of the study and were sacrificed before the second treatment on the fifth day. Blood samples were collected from each animal via cardio puncture. Laparotomies were performed and ascites fluid collected and volume measured by pipet. Spleens were dissected from each animal, any excessive fat or connective tissue was removed and the spleens were weighted.

In the case of `CC[C@H](C)[C@@H]1NC(=O)[C@H](Cc2ccccc2)NC(=O)[C@@H](N)CSSC[C@@H](C(=O)N2CCC[C@H]2C(=O)N[C@@H](CCNC(=O)[C@@H](N)CCCCNC(=O)[C@H](CCCCNC(C)=O)NC(=O)CC[C@H](NC(=O)[C@H](CCCNC(=N)N)NC(=O)[C@@H]2CCCN2C(=O)[C@H](C)NC(=O)[C@H](CC(N)=O)NC(=O)[C@H](CCC(N)=O)NC(=O)[C@H](Cc2ccccc2)NC(=O)[C@@H](Cc2ccc(OC)cc2)NC(=O)Cc2ccccc2)C(N)=O)C(=O)NCC(N)=O)NC(=O)[C@H](CC(N)=O)NC(=O)[C@H](CCC(N)=O)NC1=O` [Compound 1, Glycinamide, L-cysteinyl-L-phenylalanyl-L-isoleucyl-L-glutaminyl-L-asparaginyl-L-cysteinyl-L-prolyl-N4-(phenylacetyl-O-methyl-D-tyrosyl-L-phenylalanyl-L-glutaminyl-L-asparaginyl-L-alanyl-L-prolyl-L-arginyl-L-isoglutamyl-N5-acetyl-L-lysyl-L-ε-lysyl)-L-2,4-diaminobutyryl-, cyclic (1→6)-disulfide] (I: H-CFIQNCP[Dab]G-NH2 / II: PhAc-[dY](Me)FQNAPR[isoGln]K(Ac)[εLys]; disulfide I:1-I:6; amide I:8-II:C), the Emax (rV1b receptor) is reported as 97%, the metabolised [1] is reported as 80 to 90% and the “animals with local reaction at injection site” value ([2]; SC 4 and 20 mg/kg) is reported as “three of the six”. For the same molecule, the tolerability ([2]; SC bolus) was “well tolerated”, the bodyweight gain ([2]; SC, four administrations up to 20 mg/kg) was “did not influence bodyweight gain” and the deaths ([2]; SC, up to 20 mg/kg) was “no deaths occurred”. For the same molecule, the tolerability ([2]; single SC, conscious rats, all tested dose levels) was “well tolerated at all tested dose levels”, the tolerability ([2]; single-dose IV bolus (cassette)) was “well tolerated” and the half-life ([3]; i.v.) was roughly 4 h. For the same molecule, the half-life ([3]; s.c.) was “about 2 hours”, the “conversion of Compound 1 to M1” value ([3]; s.c. (bolus) injection, human) was 80-90% and the “Animal Body Weight” value ([4]; day 1) was 362.4 g. For the same molecule, the “Animal Body Weight” value ([4]; day 2) was 330.2 g, the “Animal Body Weight” value ([4]; day 3) was 324.6 g and the “Animal Body Weight” value ([4]; day 4) was 329.0 g. The “Animal Body Weight” value ([4]; day 5) was 329.8 ± 2.9 g and 329.8 g, the “Urine Volume” value ([4]; 5-24 hr) was 31.2 mL and the “Urine Volume, Δ versus vehicle” value ([4]; 5-24 hr) was 46%. The Urine creatinine content ([4]; 5-24 hr) was 9.5 mg, the “Urine creatinine content, Δ versus vehicle” value ([4]; 5-24 hr) was −32% and the Urine potassium content ([4]; 5-24 hr) was 0.8 mEq. The “Urine potassium content, Δ versus vehicle” value ([4]; 5-24 hr) was −60%, the Urine sodium content ([4]; 5-24 hr) was 1.1 mEq and the “Urine sodium content, Δ versus vehicle” value ([4]; 5-24 hr) was 85%. For the same molecule, the “Urine Volume” value ([4]; 4 hr) was 9.8 mL, the “Urine Volume, Δ versus vehicle” value ([4]; 4 hr) was 367% and the Urine creatinine content ([4]; 4 hr) was 2.7 mg. The “Urine creatinine content, Δ versus vehicle” value ([4]; 4 hr) was 8%, the Urine potassium content ([4]; 4 hr) was 1.1 mEq and the “Urine potassium content, Δ versus vehicle” value ([4]; 4 hr) was 394%. For the same molecule, the Urine sodium content ([4]; 4 hr) was 2.6 mEq, the “Urine sodium content, Δ versus vehicle” value ([4]; 4 hr) was 2342% and the “Net Fluid Balance” value ([4]; 24 hours (vehicle 10.0)) was -24.3 mL. For the same molecule, the “Urine Volume” value ([4]; 24 hr) was 41.0 ± 4.3 mL and 41.0 mL, the “decrease in mean body weight” value ([4]; between day 1 and 2) was 32.2 g and the “further decrease in mean body weight” value ([4]; between days 2 and 3) was 5.6 g. For the same molecule, the BUN ([4]; day 5) was 34 mg/dL, the “BUN, Δ versus vehicle” value ([4]; day 5) was 64% and the Cl ([4]; day 5) was 100 mEq/L. For the same molecule, the “Cl, Δ versus vehicle” value ([4]; day 5) was −3%, the Creatinine (blood) ([4]; day 5) was 0.3 mg/dL and the “Na (blood)” value ([4]; day 5) was 139 mEq/L. The “Na (blood), Δ versus vehicle” value ([4]; day 5) was −1%, the PHOS ([4]; day 5) was 5.1 mg/dL and the “PHOS, Δ versus vehicle” value ([4]; day 5) was −21%. The “difference in final body weight versus vehicle” value ([4]; day 5) was 39.8 g, the “Spleen Weight” value ([4]; day 5 (vehicle 2.7)) was 2.3 g and the “Ascites Volume” value ([4]; day 5 (vehicle 19.8)) was 3.8 ± 1.8 mL and 3.8 mL. For the same molecule, the hyponatremia ([4]; repeat administration over 5 days) was “failed to provide hyponatremia”.
